Measured values as given in US10986838B2, “Herbicides” (SYNGENTA PARTICIPATIONS AG, priority 2016, dated 2021).

Experiments:
Type in all cases: in vivo
[1] = test system: Triticum aestivium (TRZAW); assay: Pre-emergence herbicidal activity (B1); conditions: Test 1a, 1000 g/ha, evaluated after 13 days, 5=total damage to plant, 0=no damage to plant
Method in brief: (§1)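 After one day of cultivation, soil pots were treated pre-emergence by spray with active ingredient in acetone/water (50:50) and 0.5% Tween 20. Evaluation at 13 days used a 0–5 scale, where 5 meant total plant damage.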

[2] = test system: Echinochloa crus-galli (ECHCG); assay: Pre-emergence herbicidal activity (B1); conditions: Test 1a, 1000 g/ha, evaluated after 13 days, 5=total damage to plant, 0=no damage to plant
Method in brief: as §1

Avena fatua (AVEFA) [3] = assay: Pre-emergence herbicidal activity (B1); conditions: Test 1a, 1000 g/ha, evaluated after 13 days, 5=total damage to plant, 0=no damage to plant
Method in brief: as §1

[4] = test system: Alopecurus myosuroides (ALOMY); assay: Pre-emergence herbicidal activity (B1); conditions: Test 1a, 1000 g/ha, evaluated after 13 days, 5=total damage to plant, 0=no damage to plant
Method in brief: as §1

Lolium perenne (LOLPE) [5] = assay: Pre-emergence herbicidal activity (B1); conditions: Test 1a, 1000 g/ha, evaluated after 13 days, 5=total damage to plant, 0=no damage to plant
Method in brief: as §1

Setaria faberi (SETFA) [6] = assay: Pre-emergence herbicidal activity (B1); conditions: Test 1a, 1000 g/ha, evaluated after 13 days, 5=total damage to plant, 0=no damage to plant
Method in brief: as §1

[7] = test system: Triticum aestivium (TRZAW); assay: Post-emergence herbicidal activity (B2); conditions: Test B2a, 1000 g/ha, evaluated after 13 days, 5=total damage to plant, 0=no damage to plant
Method in brief: (§2)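 Plants grown for 8 days in a glasshouse (24/16 °C day/night, 14 h light, 65% humidity) were sprayed post-emergence with compound formulated in acetone/water 50:50 containing 0.5% Tween 20. Damage was scored 13 days later on a 0–5 scale (5 = total damage).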

[8] = test system: Echinochloa crus-galli (ECHCG); assay: Post-emergence herbicidal activity (B2); conditions: Test B2a, 1000 g/ha, evaluated after 13 days, 5=total damage to plant, 0=no damage to plant
Method in brief: as §2

Avena fatua (AVEFA) [9] = assay: Post-emergence herbicidal activity (B2); conditions: Test B2a, 1000 g/ha, evaluated after 13 days, 5=total damage to plant, 0=no damage to plant
Method in brief: as §2

[10] = test system: Alopecurus myosuroides (ALOMY); assay: Post-emergence herbicidal activity (B2); conditions: Test B2a, 1000 g/ha, evaluated after 13 days, 5=total damage to plant, 0=no damage to plant
Method in brief: as §2

Lolium perenne (LOLPE) [11] = assay: Post-emergence herbicidal activity (B2); conditions: Test B2a, 1000 g/ha, evaluated after 13 days, 5=total damage to plant, 0=no damage to plant
Method in brief: as §2

Setaria faberi (SETFA) [12] = assay: Post-emergence herbicidal activity (B2); conditions: Test B2a, 1000 g/ha, evaluated after 13 days, 5=total damage to plant, 0=no damage to plant
Method in brief: as §2

Structure (SMILES)	TRAZW damage score [1]	ECHCG damage score [2]	AVEFA damage score (Avena fatua (AVEFA) [3])	ALOMY damage score [4]	LOLPE damage score (Lolium perenne (LOLPE) [5])	SETFA damage score (Setaria faberi (SETFA) [6])	TRAZW damage score [7]	ECHCG damage score [8]	AVEFA damage score (Avena fatua (AVEFA) [9])	ALOMY damage score [10]	LOLPE damage score (Lolium perenne (LOLPE) [11])	SETFA damage score (Setaria faberi (SETFA) [12])
Fc1cncc(-c2ccc(NCC3CCC3)c(C(F)(F)F)n2)c1 [Compound A51, N-(cyclobutylmethyl)-6-(5-fluoro-3-pyridyl)-2-(trifluoromethyl)pyridin-3-amine]	1	5	1	1	1	5	2	5	4	1	3	4
Fc1cncc(-c2ccc(NCC3CCCCC3)c(C(F)(F)F)n2)c1 [Compound A52]	0	3	1	0	1	5	0	3	3	0	3	5
CC(C)CCNc1ccc(-c2cncc(F)c2)nc1C(F)(F)F [Compound A53]	1	4	1	1	2	5	1	5	3	1	3	5
CCCCCNc1ccc(-c2cncc(F)c2)nc1C(F)(F)F [Compound A54]	0	3	1	0	1	5	0	3	3	0	2	5
Fc1cncc(-c2ccc(NCc3cc4ccccn4n3)c(C(F)(F)F)n2)c1 [Compound A55]	0	5	2	0	1	5	2	5	4	1	3	5
Fc1cncc(-c2ccc(NCc3nccs3)c(C(F)(F)F)n2)c1 [Compound A56]	1	4	2	0	1	5	1	5	4	1	3	5
